Assay results from patent US5902794A (priority 1997, dated 1999).

Legend:
[1] = test system: LS-174T colon cancer cells; experiment: cell cycle analysis, LS-174T; format: cell-based, human; details: 8-Cl 10 μM, 3 days, two separate experiments
Description: DNA histograms were generated on FACS II by using the DNA intercalating dye propidium iodide as described by Braylan et al. (Cytometry 2: 337-343, 1982). The percentage of cells in each cycle phase was calculated by using a PDP-11/34 computer and software as described by Neckers et al. (Mol. Cell. Biol. 6: 4244-4250, 1986).
Breast (MCF-7, MDA-MB-231) and colon (LS-174T) cancer cells in
log phase (untreated control) and 3 days after treatment with
(5 μM) were analyzed for DNA content by flow cytometric analysis

HL-60 cells = experiment: differentiation markers (surface antigens) in HL-60 cells; format: cell-based, human; details: three days
murine leukemia L1210 = experiment: life span of L1210-inoculated BDF1 mice; format: in vivo, mouse
From the text: | Infusions by Harvard pumps.

HL-60 = experiment: growth inhibition of HL-60; format: cell-based, human
NMU-2 = experiment: growth of metastatic NMU-2 rat mammary carcinoma; format: in vivo; details: pellet with 10 mg cAMP analogue, day 7
Description: NMU2, a variant of primary hormoneresponsive NMU tumor,
hormoneindependent, transplantable, and metastatic.
8Cl-cAMP and DBcAMP were given as a 20mg pellet consisting of 10 mg of […]

[2] = test system: R^I cAMP receptor protein (Molt-4); experiment: R^I cAMP receptor protein in Molt-4 leukemic cells; format: cell-based, human; details: 5 micromol/L, three days
From the text: M marker proteins of known molecular weight. […] The resulting supernatants were used as cell lysates. […] ND=nondetectable.

LS-174T = experiment: growth of LS-174T cells; format: cell-based; details: Homo sapiens, LS174T, 72 h; 10 microM, 3 days
Description: M is marker proteins of known molecular weight.
(§1) All breast cancer cell lines were grown in IMEM supplemented with 10% fetal bovine serum, 20 mM HEPES, penicillin-streptomycin, and extra glutamine. Colon carcinoma cell lines were grown in EMEM supplemented with 10% FBS, EMEM, NEAA, HEPES 20 mM, extra glutamine, and penicillin-streptomycin. The cells were grown at 37° C. in humidified incubators in an atmosphere of 5% CO2.
For cell growth experiments, 2-3×10^5 cells/60 mm dish were seeded, and 24 hours later (Day 0), the medium was removed, and fresh medium and the additives were added then and every 48 hours thereafter The compounds of the present invention were added using 100× concentrated stock solutions. At desired times, cell counts in duplicate were performed on a Coulter counter after harvesting the cells with gentle trypsinization.

[3] = test system: LS-174T colon cancer line; experiment: growth inhibition and release from inhibition, LS-174T (FIG. 3); format: cell-based, human
Description: 1×10^5 cells/60 mm dish were seeded, and 24 hours later (Day 0), the medium was removed and fresh medium and additives were added then and every 48 hours thereafter. […] The triplicate cell count for each experimental point never varied by more than 10%.
as §1

R^II = details: cited from earlier work
[4] = test system: p21 ras protein (MCF-7 cells); experiment: Western blotting of p21 ras protein in MCF-7 cells; format: cell-based, human; details: 10 microM, three days
Description: Western blotting of p21 protein was performed as described below. […] V is cell lysate from Ha-MuSV-transformed NIH3T3 clone 13-3B-4. M, marker proteins of known molecular weight.
Cellular proteins present in cell extracts were separated by 12% SDS-PAGE and transferred to nitrocellulose sheets in transfer buffer (25 mM Tris, 192 mM glycine, 20% methanol, pH 7.4). Nitrocellulose sheets were washed and first incubated with 3% bovine serum albumin in NTE-NP40 (50 mM Tris-HCl, pH 7.5, 150 mM NaCl, 2 mM EDTA, 0.1% Nonidet P-40) for three hours at 37° C. and then sequentially incubated with medium containing p21 monoclonal antiserum Y13-259 directed against the Ha-MuSV-encoded p21 for sixteen hours at 4° C., rabbit anti-rat IgG for 2.5 hours in an ice-water bath, and 5×10^5 cpm/ml ^125 I-protein A for one hour in an ice-water bath. The nitrocellulose sheets were air-dried and exposed to Kodak XAR film for 12-36 hours at -20° C. Comparison of the resulting autoradiograms with others in which normal rat serum was substituted for p21 monoclonal antibody permitted identification of p21. To provide a reference p21, cell lysates were prepared from NIH 3T3 clone 13-3B-4 that had been transfected with Ha-MuSV DNA.
The levels of p21 protein are expressed relative to the p21 level in the untreated control cells, which is set equal to 1.0 O.D.

With `Nc1ncnc2c1nc(Cl)n2[C@@H]1O[C@@H]2COP(=O)(O)O[C@H]2[C@H]1O` [8-Cl-cAMP] the “% Cell population in G1” value [1] was 63,53%, the “% Cell population in G2 M” value [1] was 22,25% and the “% Cell population in S” value [1] was 15,22%. For the same compound, the activity at 10 µM ([1]; Homo sapiens, LS174T, 72 h, read-out: % Growth) was 30.3%, the “markers of immature progenitor cells (My7, My9), in words” value (HL-60 cells) was “decrease in markers related to the immature progenitor cells” and the “monocyte-specific surface antigens (MO2, OKM5), in words” value (HL-60 cells) was “marked increase in the expression”. For the same compound, the antitumor effect (murine leukemia L1210; 104 mg/kg bolus injection, seven consecutive days) was “no antitumor effect”, the “tolerability in L1210-bearing mice” value (murine leukemia L1210; 104 mg/kg bolus, seven consecutive days) was “tolerated” and the “increase in mean life span” value (murine leukemia L1210; 104 mg/kg/day constant infusion, five days) was 37%. For the same compound, the “growth inhibition (footnote)” value (HL-60; 20 μmol/L) was “Seventy percent growth inhibition”, the IC50 (HL-60; Homo sapiens, HL-60) was 100 µM and the “Change in mean tumor volume” value (NMU-2) was 1.10 cm^3. The “R^I receptor protein, in words” value [2] was “markedly decreased”, the activity at 10 µM (LS-174T) was 30% and the “mechanism of growth inhibition / cell viability” value [3] was “decrease in the rate of replication without affecting cell viability”. The “cell growth during treatment” value ([3]; 8-Cl-cAMP 10 microM or 8-Cl-adenosine 5 microM) was “marked reduction in cell growth”, the “growth after cessation of treatment” value ([3]; after removal of additives) was “resumed growth almost immediately” and the “site selectivity of binding, R^II” value (R^II) was “selectively binds to site 1”. For the same compound, the “p21 level, in words” value [4] was “markedly decreased level of p21”.
